Source: patent US7300933B2, “Diazabicyclic biaryl derivatives” (Neurosearch A/S, priority 2002, dated 2007)
Where a name gives a salt, the structure may show the parent alone.

Tests used:
[1] = biological target: T1, serotonin transporter (Rattus norvegicus, UniProt P31652); assay: In vitro inhibition of 3H-5-hydroxytryptamine uptake in cortical synaptosomes; format: biochemical; conditions: 3H-5-HT 1 nM, 30 minutes at 37° C.
T1 construct: Cerebral cortices from male Wistar rats (150-200 g) are homogenized; from tissue; host or cells: rat cerebral cortex synaptosomes (P2 pellet)
Description: In vitro Inhibition of ^3H-5-Hydroxytryptamine Uptake in Cortical Synaptosomes
Serotonin transporters/uptake sites on nerve terminals presumably function to terminate neuronal signaling by removing serotonin from the synaptic cleft. The activity of the serotonin transporter integral protein can be measured in vitro by synaptosomal uptake of ^3H-5-hydroxytryptamine (5-HT, serotonin).
Preparations are performed at 0-4° C. Cerebral cortices from male Wistar rats (150-200 g) are homogenized for 5-10 seconds in 100 volumes of ice-cold 0.32 M sucrose containing 1 mM pargyline, using a motor driven teflon pestle in a glass homogenizing vessel. Monoamine oxidase activity is inhibited in the presence of pargyline.
The homogenate is subjected to centrifugation at 1000×g for 10 minutes. The resulting supernatant is then centrifuged at 27,000×g for 50 minutes and the supernatant is discarded. […]
Aliquots of 4.0 ml tissue suspension are added to 100 μl of test solution and 100 μl of ^3H-5-HT (1 nM, final concentration), mixed and incubated for 30 minutes at 37° C. Non-specific uptake is determined using Citalopram (1 μM, final concentration, available from Lundbeck, Denmark). […]
The amount of radioactivity on the filters is determined by conventional liquid scintillation counting. Specific uptake is calculated as the difference between total uptake and non-specific uptake. […]

[2] = biological target: T2, α7-subtype of nicotinic receptors (Rattus norvegicus, UniProt Q05941); assay: In vitro inhibition of 3H-α-bungarotoxine binding in rat brain; conditions: rat cerebral cortex homogenate; 3H-α-bungarotoxine 2 nM; 2 hours at 37° C.
T2 construct: Cerebral cortices from male Wistar rats (150-250 g) are homogenised; from tissue; host or cells: rat cerebral cortex membrane homogenate
T2 sequence (Q05941 23-502): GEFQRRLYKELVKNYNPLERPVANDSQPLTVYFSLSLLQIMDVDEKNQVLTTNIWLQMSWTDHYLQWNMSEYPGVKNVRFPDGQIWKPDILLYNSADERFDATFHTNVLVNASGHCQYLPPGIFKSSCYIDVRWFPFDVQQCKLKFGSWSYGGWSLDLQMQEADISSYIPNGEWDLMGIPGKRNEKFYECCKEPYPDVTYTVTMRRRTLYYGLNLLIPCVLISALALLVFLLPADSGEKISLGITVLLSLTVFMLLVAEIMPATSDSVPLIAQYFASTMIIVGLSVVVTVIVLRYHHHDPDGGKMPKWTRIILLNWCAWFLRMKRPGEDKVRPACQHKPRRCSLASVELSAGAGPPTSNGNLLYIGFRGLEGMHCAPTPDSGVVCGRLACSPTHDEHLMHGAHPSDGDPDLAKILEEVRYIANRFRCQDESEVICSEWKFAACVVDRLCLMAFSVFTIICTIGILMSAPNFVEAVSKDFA

T1 sequence (P31652 whole entry): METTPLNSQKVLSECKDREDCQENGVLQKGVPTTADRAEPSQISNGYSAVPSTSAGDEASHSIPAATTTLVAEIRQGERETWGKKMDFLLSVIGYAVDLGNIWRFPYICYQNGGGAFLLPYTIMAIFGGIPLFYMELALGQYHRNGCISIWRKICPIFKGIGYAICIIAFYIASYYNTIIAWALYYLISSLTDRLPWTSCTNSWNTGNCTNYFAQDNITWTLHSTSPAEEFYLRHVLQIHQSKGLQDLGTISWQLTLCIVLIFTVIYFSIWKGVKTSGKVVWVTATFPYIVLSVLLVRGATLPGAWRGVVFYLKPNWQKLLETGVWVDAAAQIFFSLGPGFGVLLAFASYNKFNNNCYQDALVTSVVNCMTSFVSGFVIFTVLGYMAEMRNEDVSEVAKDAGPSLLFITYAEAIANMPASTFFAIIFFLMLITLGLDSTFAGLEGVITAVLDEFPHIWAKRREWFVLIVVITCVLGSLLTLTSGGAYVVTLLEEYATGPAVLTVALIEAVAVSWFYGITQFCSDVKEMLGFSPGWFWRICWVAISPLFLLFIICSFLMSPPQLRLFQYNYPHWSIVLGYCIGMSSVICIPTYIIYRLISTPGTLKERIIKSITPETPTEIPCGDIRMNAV

Compound | IC50 [1] [µM] | IC50 [2] [µM]
c1cc(-c2ccc(N3C[C@@H]4C[C@H]3CN4)nn2)cs1 [Compound 1A, 2-[6-(3-Thienyl)-3-pyridazinyl]-(1S,4S)-2,5-diazabicyclo-[2.2.1]-heptane fumaric acid salt] | 0.51 | 
CN1C[C@@H]2C[C@H]1CN2c1ccc(-c2ccsc2)nn1 [Compound 1B, 5-Methyl-2-[6-(3-thienyl)-3-pyridazinyl]-(1S,4S)-2,5-diazabicyclo-[2.2.1]-heptane] |  | 0.2
c1cc(-c2cnc(N3C[C@@H]4C[C@H]3CN4)cn2)cs1 [Compound 1H, 2-[5-(3-Thienyl)-2-pyrazinyl]-(1S,4S)-2,5-diazabicyclo-[2.2.1]-heptane fumaric acid salt] | 0.021 | 0.26
